Reference: ChEMBL document CHEMBL1201862, “PubChem BioAssay data set” (2004)
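Method: 48-hour compound exposure of cells in 96-well plates, five concentrations, linear interpolation of endpoints. GI50: concentration for 50% inhibition of growth.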 The source made the active and inactive calls. No stated cut-off is given here; in the data, active = GI50 up to about 1.1 µM and inactive = higher.

Legend:
Test in all cases: NCI anticancer screen, dose series, 48 h
IGROV-1 = system: IGROV-1
UACC-62 = system: UACC-62
SK-MEL-5 = system: SK-MEL-5
ACHN = system: ACHN
MOLT-4 = system: MOLT-4
SNB-19 = system: SNB-19
SNB-75 = system: SNB-75
NCI-H460 = system: NCI-H460
HCT-116 = system: HCT-116
SK-OV-3 = system: SK-OV-3
HOP-62 = system: HOP-62
KM12 = system: KM12
HCT-15 = system: HCT-15
DMS-114 = system: DMS-114
NCI-H23 = system: NCI-H23
COLO 205 = system: COLO 205
UACC-257 = system: UACC-257
UO-31 = system: UO-31

Compound	GI50 (IGROV-1)	GI50 (UACC-62)	GI50 (SK-MEL-5)	GI50 (ACHN)	GI50 (MOLT-4)	GI50 (SNB-19)	GI50 (SNB-75)	GI50 (NCI-H460)	GI50 (HCT-116)	GI50 (SK-OV-3)	GI50 (HOP-62)	GI50 (KM12)	GI50 (HCT-15)	GI50 (DMS-114)	GI50 (NCI-H23)	GI50 (COLO 205)	GI50 (UACC-257)	GI50 (UO-31)
CCOC(=O)NC(=O)c1cn(CCNCCO)c(=O)[nH]c1=O	> 100 µM (inactive)	> 100 µM (inactive)	> 100 µM (inactive)	> 100 µM (inactive)	> 100 µM (inactive)	9.23 µM (inactive)	3.36 µM (inactive)	> 100 µM (inactive)	> 100 µM (inactive)	> 100 µM (inactive)	> 100 µM (inactive)	> 100 µM (inactive)	> 100 µM	> 100 µM (inactive)	> 100 µM (inactive)	> 100 µM (inactive)		
Cc1ccc(N(O)C(C)(C)C)cc1	> 100 µM (inactive)	> 100 µM (inactive)	> 100 µM (inactive)		> 100 µM (inactive)	> 100 µM (inactive)	> 100 µM (inactive)	> 100 µM (inactive)	> 100 µM (inactive)	> 100 µM (inactive)	> 100 µM (inactive)	> 100 µM (inactive)	> 100 µM	> 100 µM (inactive)	> 100 µM (inactive)	> 100 µM (inactive)	> 100 µM (inactive)	> 100 µM (inactive)
O=[N+]([O-])c1cc2ncc(-c3ccccc3)c(O)c2cc1/C(Cl)=C/c1ccccc1	5.83 µM (inactive)	6.97 µM (inactive)	5.04 µM (inactive)		6.85 µM (inactive)	16.3 µM (inactive)	9.1 µM (inactive)	9.16 µM (inactive)	6.89 µM (inactive)	27.1 µM (inactive)	16.3 µM (inactive)	9.12 µM (inactive)	11.1 µM	4.88 µM (inactive)	7.67 µM (inactive)	7.82 µM (inactive)	24.3 µM (inactive)	9.89 µM (inactive)
Nc1nc(=O)n(CC(O)CO)s1 (stereo unspecified)	> 100 µM (inactive)	> 100 µM (inactive)	> 100 µM (inactive)	> 100 µM (inactive)	> 100 µM (inactive)	> 100 µM (inactive)	> 100 µM (inactive)	> 100 µM (inactive)	> 100 µM (inactive)		> 100 µM (inactive)		> 100 µM	> 100 µM (inactive)	> 100 µM (inactive)	> 100 µM (inactive)	> 100 µM (inactive)	> 100 µM (inactive)
CC(C)(C)[Si](OC1CC(n2cnc3c(N)ncnc32)OC1CO)(c1ccccc1)c1ccccc1 (stereo unspecified)	20.8 µM (inactive)			13.6 µM (inactive)	20.7 µM (inactive)	20.2 µM (inactive)		16.3 µM (inactive)	17.2 µM (inactive)	14.9 µM (inactive)	22.5 µM (inactive)	19.8 µM (inactive)	> 10 µM	23.7 µM (inactive)	13.9 µM (inactive)	30.3 µM (inactive)	66.5 µM (inactive)	23.7 µM (inactive)
COc1ccc(-c2cc(-c3ccccc3)c(C#N)c(=O)n2C2OC(CO)C(O)C(O)C2O)cc1 (stereo unspecified)	> 100 µM (inactive)	> 100 µM (inactive)	> 100 µM (inactive)	> 100 µM (inactive)	> 100 µM (inactive)	> 100 µM (inactive)		> 100 µM (inactive)	> 100 µM (inactive)	> 100 µM (inactive)	> 100 µM (inactive)	> 100 µM (inactive)	> 100 µM	> 100 µM (inactive)	> 100 µM (inactive)	> 100 µM (inactive)	> 100 µM (inactive)	> 100 µM (inactive)
O=C(NCCCCCCNC(=O)n1cc(F)c(=O)[nH]c1=O)NCCCOCCOCCCNC(=O)C(O)C(O)C(O)C(O)CO (stereo unspecified)	> 2.5 µM (inactive)	> 2.5 µM (inactive)	> 2.5 µM (inactive)		> 2.5 µM (inactive)	> 2.5 µM (inactive)	> 2.5 µM (inactive)	1.51 µM (inactive)	> 2.05 µM (inactive)	> 2.5 µM (inactive)	> 2.5 µM (inactive)	> 2.5 µM (inactive)	2.43 µM	> 2.5 µM (inactive)	> 2.5 µM (inactive)	> 2.5 µM (inactive)	> 2.5 µM (inactive)	> 2.3 µM (inactive)
CCOC(=O)[C@H]1Nc2c(cccc2[N+](=O)[O-])[C@H]2OCC[C@@H]12	> 100 µM (inactive)	> 100 µM (inactive)	> 100 µM (inactive)	> 100 µM (inactive)	> 100 µM (inactive)	> 100 µM (inactive)	> 100 µM (inactive)	> 100 µM (inactive)	> 100 µM (inactive)		> 100 µM (inactive)	> 100 µM (inactive)	> 100 µM	> 100 µM (inactive)	> 100 µM (inactive)	> 100 µM (inactive)	11.5 µM (inactive)	> 100 µM (inactive)
Cn1c(=O)[nH]c2c(c1=O)C(=O)CN2	> 100 µM (inactive)		> 100 µM (inactive)	> 10 µM (inactive)	> 100 µM (inactive)	> 100 µM (inactive)	> 100 µM (inactive)	> 100 µM (inactive)	> 100 µM (inactive)	> 100 µM (inactive)		> 100 µM (inactive)	> 100 µM	> 100 µM (inactive)		> 100 µM (inactive)	> 100 µM (inactive)	> 100 µM (inactive)
CC(=O)NC(Cc1ccsc1)C(=O)O (stereo unspecified)	> 100 µM (inactive)	> 100 µM (inactive)	> 100 µM (inactive)		> 100 µM (inactive)	> 100 µM (inactive)	> 100 µM (inactive)	> 100 µM (inactive)	> 100 µM (inactive)	> 100 µM (inactive)	> 100 µM (inactive)	> 100 µM (inactive)	> 100 µM	> 100 µM (inactive)	> 100 µM (inactive)	> 100 µM (inactive)	> 100 µM (inactive)	> 100 µM (inactive)
Cc1cnc(SCCN2CCN(C)CC2)nc1-c1cc2ccccc2s1	> 10 µM (inactive)	16.2 µM (inactive)	3.46 µM (inactive)		2.52 µM (inactive)		12.2 µM (inactive)	3.51 µM (inactive)	11.4 µM (inactive)	3.77 µM (inactive)	0.155 µM (active)	16.3 µM (inactive)	10.5 µM	7.66 µM (inactive)	16.3 µM (inactive)	14.3 µM (inactive)	10.3 µM (inactive)	7.78 µM (inactive)
CCN(CC)c1ccc2cc(C(=O)Nc3ccc4[nH]c(C(=O)N5C[C@@H](CCl)c6c5cc(OC(=O)Nc5ccccc5)c5[nH]cc(C)c65)cc4c3)oc2c1 [CARZELESIN]	0.000506 µM (active)	4.61e-05 µM (active)	306 µM (inactive)		0.000343 µM (active)	294 µM (inactive)	284 µM (inactive)	9.08e-05 µM (active)	152 µM (inactive)	0.00042 µM (active)	0.000171 µM (active)	678 µM (inactive)	0.000676 µM	0.000201 µM (active)	0.000311 µM (active)		384 µM (inactive)	668 µM (inactive)
